From patent US11466044B2 (WAYNE STATE UNIVERSITY, priority 2017, dated 2022)
Read-outs that look alike come from different tables or passages of the source.

Legend:
[1] = system: MRSA; experiment: MIC by broth microdilution, MRSA isolates; type: cell-based
[2] = system: E coli wild type; experiment: MIC by broth microdilution, wild type E coli; type: cell-based
[3] = system: P aeruginosa; experiment: MIC by broth microdilution, P aeruginosa isolates; type: cell-based, Pseudomonas aeruginosa
[4] = system: E coli carrying specific resistance determinants; experiment: MIC by broth microdilution, E coli carrying specific resistance determinants; type: cell-based
[5] = system: M. abscessus; experiment: MIC by broth microdilution, M. abscessus; type: cell-based
[6] = system: wild type bacterial ribosomes; experiment: in-vitro translation assay, bacterial ribosomes; type: biochemical
From the text: (§1) The antiribosomal activity of these compounds was investigated with cell-free translation assays using both wild type bacterial ribosomes and hybrid ribosomes carrying eukaryotic decoding A sites enabling the prediction of selectivity.

[7] = system: A1555G mutant mitochondrial ribosome (human chimeric); experiment: in-vitro translation assay, human chimeric ribosomes, A1555G mutant mitochondrial decoding site; type: biochemical; conditions: human mitochondrial decoding site with A1555G point mutation; read-out: IC50 Mitoch. A1555G
From the text: as §1

[8] = system: cytosolic ribosome (human chimeric); type: biochemical
From the text: as §1

[9] = system: mitochondrial ribosome (human chimeric); type: biochemical
From the text: as §1

[10] = system: rabbit reticulocyte ribosomes; experiment: in-vitro translation assay, rabbit reticulocyte ribosomes; type: biochemical; conditions: mammalian cytosolic ribosomes (rabbit)
[11] = system: Klebsiella pneumonia AG215; experiment: MIC by broth microdilution, Klebsiella pneumonia; type: cell-based; conditions: strain AG215 Klebsiella pneumonia
[12] = system: Acinetobacter baumannii pittii AG225; experiment: MIC by broth microdilution, Acinetobacter baumannii; type: cell-based; conditions: strain AG225 Acinetobacter baumannii pittii
[13] = system: Enterobacter cloacae AG290; experiment: MIC by broth microdilution, Enterobacter cloacae; type: cell-based; conditions: strain AG290 Enterobacter cloacae
[14] = system: N. gonorrhoeae; experiment: Disk diffusion, N. gonorrhoeae; type: cell-based; conditions: 25 nmol
[15] = system: M. smegmatis SZ380; experiment: MIC by broth microdilution, M. smegmatis

NC[C@@H]1O[C@H](O[C@H]2[C@@H](O)[C@H](O[C@@H]3[C@@H](O)[C@H](N)C[C@H](N)[C@H]3O[C@H]3O[C@H](CN)[C@@H](O)[C@H](O)[C@H]3N)O[C@@H]2CO)[C@H](N)[C@@H](O)[C@@H]1O [neomycin, Neomycin B, reference compound]
35 µM: IC50 ([8]; cytosolic, Table 3 (Example 1), read-out: IC50 Cyt) | IC50 ([8]; cytosolic, Table 3 (Example 2), read-out: IC50 Cyt) | IC50 ([8]; cytosolic, Table 4 (Example 3), read-out: IC50 Cyt) | IC50 ([8]; ribosomes with a human cytosolic decoding site, read-out: IC50 Cytosolic)
32 µg/mL: MIC50 P aeruginosa AG31 ([3]; strain AG31, Table 1 (Example 2)) | MIC AG220 P. aerugin ([3]; strain AG220 Pseudomonas aeruginosa ATCC27853) | MIC50 E coli AG036 ANT(4′,4″) ([4]; Table 2A (Example 2))
0.25 to 0.5 µg/mL: MIC E coli AG006 Wild type ([2]; AG006 Wild type, Table 2 (Example 3)) | MIC50 E coli AG103 armA ([4]; AG103 armA, Table 2B (Example 2)) | MIC AG103 armA ([4]; E. coli strain AG103, armA)
32 to 64 µg/mL: MIC50 P aeruginosa AG32 ([3]; strain AG32, Table 1 (Example 2)) | MIC APH(3)-VI ([4]; APH(3)-VI, Table 3 (Example 1)) | MIC APH(3′)-VI ([4]; APH(3′)-VI, Table 3 (Example 2))
4 µg/mL: MIC E coli AG001 ([2]; clinical isolate AG001, Table 1 (Example 3)) | MIC AAC(6′) ([4]; AAC(6′), Table 3 (Example 2)) | MIC50 E coli AG07 AAC(3) ([4]; AG07 AAC(3), Table 2A (Example 2)) | MIC M. abscessus engineered Δeis2 ([5]; engineered Δeis2, Table 5 (Example 3))
4 μg/ml: MIC pH415 AAC(6′)-II ([4]; E. coli strain pH415, AAC(6′)-II) | MIC50 E coli pH415 AAC(6′)-II ([4]; pH415 AAC(6′)-II, Table 2B (Example 2))
>64 μg/mL: MIC E. coli AAC(2′) pH434 ([4]; AAC(2′) pH434, Table 4 (Example 3))
128 µg/mL: MIC AG039 MRSA AAC(6′)-I ANT(4′)-I ([1]; clinical isolate AG039, AAC(6′)-I ANT(4′)-I) | MIC MRSA AG039 ([1]; clinical isolate AG039, Table 1 (Example 3)) | MIC AG042 MRSA AAC(6′)-I ANT(4′)-I APH(2′) ([1]; clinical isolate AG042, AAC(6′)-I ANT(4′)-I APH(2′)) | MIC MRSA AG042 ([1]; clinical isolate AG042, Table 1 (Example 3)) | MIC50 MRSA AG39 ([1]; strain AG39, Table 1 (Example 2)) | MIC50 MRSA AG42 ([1]; strain AG42, Table 1 (Example 2))
2 μg/ml: MIC pH414 AAC(6′)-I ([4]; E. coli strain pH414, AAC(6′)-I) | MIC50 E coli pH414 AAC(6′)-I ([4]; pH414 AAC(6′)-I, Table 2B (Example 2))
low: Target specificity bacterial vs. Mitochondrial ([9]; relative target specificity, bacterial vs. human mitochondrial)
>64 μg/ml: MIC E. coli pH434 AAC(2′)-Ib ([4]; pH434 AAC(2′)-Ib, Table 5 (Example 3))
>128 μg/ml: MIC pH421 APH(3)-I ([4]; E. coli strain pH421, APH(3)-I) | MIC pH421 E. coli APH(3′)-I ([4]; engineered strain pH421 APH(3′)-I, Table 2 (Example 4)) | MIC50 E coli pH421 APH(3′)-I ([4]; pH421 APH(3′)-I, Table 2B (Example 2))
>256 µg/mL: MIC50 E coli AG037 APH(3′,5″) ([4]; AG037 APH(3′,5″), Table 2A (Example 2))
>128 µg/mL: MIC50 P aeruginosa AG33 ([3]; strain AG33, Table 1 (Example 2)) | MIC50 P aeruginosa AG86 ([3]; strain AG86, Table 1 (Example 2))
1 to 2 µg/mL: MIC50 MRSA AG38 ([1]; strain AG38, Table 1 (Example 2)) | MIC50 E coli AG55 ([2]; strain AG55, Table 1 (Example 2)) | MIC AG225 A. baumannii [12]
64 µg/mL: MIC APH(3′)-II ([4]; Table 3 (Example 1)) | MIC APH(3′)-II ([4]; Table 3 (Example 2)) | MIC AG166 E. coli APH(3′)-II ([4]; clinical isolate AG166 APH(3′)-II, Table 2 (Example 4))
4.3 µM: IC50 ([9]; mitochondrial, Table 3 (Example 1), read-out: IC50 Mit) | IC50 ([9]; mitochondrial, Table 3 (Example 2), read-out: IC50 Mit) | IC50 ([9]; mitochondrial, Table 4 (Example 3), read-out: IC50 Mit) | IC50 ([9]; ribosomes with a human mitochondrial decoding site, read-out: IC50 Mitoch.)
2 µg/mL: MIC50 E coli AG01 ([2]; strain AG01, Table 1 (Example 2)) | MIC50 E coli AG105 AAC(2′) ([4]; AG105 AAC(2′), Table 2A (Example 2))
1 μg/ml: MIC pH430 WT ([2]; E. coli strain pH430, WT) | MIC pH430 E. coli WT ([2]; engineered strain pH430 WT, Table 2 (Example 4)) | MIC50 E coli pH430 WT ([2]; pH430 WT, Table 2B (Example 2)) | MIC pH432 ANT(4′) ([4]; E. coli strain pH432, ANT(4′)) | MIC50 E coli pH432 ANT(4′) ([4]; pH432 ANT(4′), Table 2B (Example 2))
4 to 8 µg/mL: MIC50 E coli AG036 ANT(4′,4″) ([4]; Table 2B (Example 2)) | MIC ANT(4′) ([4]; ANT(4′), Table 3 (Example 2)) | MIC AG036 ANT(4′,4′′) ([4]; E. coli strain AG036, ANT(4′,4′′))
16 µg/mL: MIC M. abscessus ATCC 19977 WT ([5]; ATCC 19977 WT, Table 5 (Example 3)) | MIC M. abscessus ATCC ([5]; ATCC, Table 4 (Example 3)) | MIC M. abscessus Clin. Isol. ([5]; Clin. Isol., Table 4 (Example 3)) | MIC M. abscessus clinical isolate ([5]; clinical isolate, Table 5 (Example 3))
0.04 µM: IC50 ([6]; Mycobacterium smegmatis ribosomes, read-out: IC50 Bacterial) | IC50 ([6]; bacterial ribosome, Table 3 (Example 1), read-out: IC50 Bac) | IC50 ([6]; bacterial ribosome, Table 3 (Example 2), read-out: IC50 Bac) | IC50 ([6]; bacterial ribosome, Table 4 (Example 3), read-out: IC50 Bac)
<8 mm: Disk diffusion 25 nmol N. gonorrhoeae [14]
0.5 to 1 µg/mL: MIC MRSA AG044 ([1]; clinical isolate AG044, Table 1 (Example 3)) | MIC50 MRSA AG44 ([1]; strain AG44, Table 1 (Example 2)) | MIC E coli AG104 Wild type ([2]; AG104 Wild type, Table 2 (Example 3)) | MIC E. coli WT ([2]; Table 5 (Example 3)) | MIC AG212 E. coli ([2]; strain AG212 E. coli (ATCC25922))
0.4 µM: IC50 [7]
8 µg/mL: MIC AG031 P. aer. APH(3′)-II ([3]; clinical isolate AG031, APH(3′)-II) | MIC AG032 P. aer. APH(3′)-II ([3]; clinical isolate AG032, APH(3′)-II) | MIC E. coli AAC(2′) AG106 ([4]; AAC(2′) AG106, Table 4 (Example 3)) | MIC50 E coli AG09 AAC(6′) ([4]; AG09 AAC(6′), Table 2A (Example 2)) | MIC E. coli AG106 AAC(2′)-Ia ([4]; AG106 AAC(2′)-Ia, Table 5 (Example 3)) | MIC E coli AG106 AAC(2′) ([4]; AG106 AAC(2′), Table 2 (Example 3))
>64 µg/mL: MIC50 E coli AG037 APH(3′)-III ([4]; AG037 APH(3′)-III, Table 2B (Example 2)) | MIC APH(3′)-I ([4]; APH(3′)-I, Table 3 (Example 1)) | MIC APH(3′)-III ([4]; APH(3′)-III, Table 3 (Example 1)) | MIC AG037 APH(3′)-III ([4]; E. coli strain AG037, APH(3′)-III) | MIC AG163 E. coli APH(3′)-I ([4]; clinical isolate AG163 APH(3′)-I, Table 2 (Example 4)) | MIC AG037 E. coli APH(3′)-III ([4]; engineered strain AG037 APH(3′)-III, Table 2 (Example 4))
49 µM: IC50 [10]
0.25 µg/mL: MIC AG038 MRSA ([1]; clinical isolate AG038) | MIC MRSA AG038 ([1]; clinical isolate AG038, Table 1 (Example 3))
0.5 µg/mL: MIC50 E coli AG103 armA ([4]; AG103 ArmA, Table 2A (Example 2)) | MIC AG215 K. pneumon [11] | MIC M. smegmatis SZ380 WT ([15]; SZ380 WT, Table 5 (Example 3)) | MIC SZ380 M. smegmatis ([15]; strain SZ380 Mycobacterium smegmatis)
32-64 μg/ml: MIC pH423 APH(3′)-VI ([4]; E. coli strain pH423, APH(3′)-VI) | MIC pH423 E. coli APH(3′)-VI ([4]; engineered strain pH423 APH(3′)-VI, Table 2 (Example 4)) | MIC50 E coli pH423 APH(3)-VI ([4]; pH423 APH(3)-VI, Table 2B (Example 2))
64 μg/ml: MIC pH422 APH(3′)-II ([4]; E. coli strain pH422, APH(3′)-II) | MIC pH422 E. coli APH(3′)-II ([4]; engineered strain pH422 APH(3′)-II, Table 2 (Example 4)) | MIC50 E coli pH422 APH(3′)-II ([4]; pH422 APH(3′)-II, Table 2B (Example 2))
0.25-0.5 μg/ml: MIC E. coli pGB2armA armA ([4]; pGB2armA armA, Table 5 (Example 3))
1 µg/mL: MIC50 E coli BM13 (AG06) wt ([2]; BM13 (AG06) wt, Table 2A (Example 2)) | MIC WT ([2]; Table 3 (Example 1)) | MIC WT ([2]; Table 3 (Example 2)) | MIC E. coli WT ([2]; Table 4 (Example 3)) | MIC AG001 E. coli WT ([2]; clinical isolate AG001, WT) | MIC E coli AG003 ([2]; clinical isolate AG003, Table 1 (Example 3)) | MIC AG055 E. coli WT ([2]; clinical isolate AG055, WT) | MIC E coli AG055 ([2]; clinical isolate AG055, Table 1 (Example 3)) | MIC AG160 E. coli WT ([2]; clinical isolate AG160 WT, Table 2 (Example 4)) | MIC50 E coli AG03 ([2]; strain AG03, Table 1 (Example 2)) | MIC AG003 E. coli AAC(3)-II ([4]; clinical isolate AG003, AAC(3)-II) | MIC AG290 E. cloacae [13]
